Results as given in patent USRE48335E1, “Polymyxin derivatives as antimicrobial compounds” (priority 2014, dated 2020).
Values after ≈ are worked out from the molar mass of the structure shown. Positions of bridges follow the written chain, without caps; N, C: chain ends. Non-standard residues stand in square brackets, D forms with d. Residues, ends and D or L forms follow the SMILES beside them. *: point of attachment. Benzoyl(3,5-Cl2) = O=C(c1cc(Cl)cc(Cl)c1)*; Phenylacetyl(3-Cl) = O=C(Cc1cccc(Cl)c1)*; Benzoyl(3-Cl) = O=C(c1cccc(Cl)c1)*; X4 = O=C(c1ccc(Cl)c(Cl)c1)*; X3 = O=C(c1ccc(Cl)cc1Cl)*; Dab = NCC[C@H](N)C(=O)O; Abu = CC[C@H](N)C(=O)O; Dap = NC[C@H](N)C(=O)O; PhAc = O=C(Cc1ccccc1)*

How the values were obtained:
Acinetobacter baumannii = conditions: for MIC: A. baumannii ATCC 19606; for Minimum inhibitory concentration, Ab A ATCC 17978: Acinetobacter baumannii ATCC 17978; for Minimum inhibitory concentration, Ab A ATCC 17978 / Minimum inhibitory concentration, Ab ATCC 19606 / Minimum inhibitory concentration, Ab FADDI-AB034: broth microdilution in CAMHB; for Minimum inhibitory concentration, Ab ATCC 19606: Acinetobacter baumannii ATCC 19606; for Minimum inhibitory concentration, Ab FADDI-AB034: Acinetobacter baumannii FADDI-AB034
In short: (§1)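 Lipopeptides, as trifluoroacetate salts, tested for MIC in CAMHB by CLSI broth microdilution, with polymyxin B (sulphate) as comparator.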

Enterobacter cloacae = conditions: broth microdilution in CAMHB; for Minimum inhibitory concentration, Ec FADDI-EC001: Enterobacter cloacae FADDI-EC001; for Minimum inhibitory concentration, Ec FADDI-EC003: Enterobacter cloacae FADDI-EC003; for Minimum inhibitory concentration, Ec FADDI-EC006: Enterobacter cloacae FADDI-EC006
In short: as §1

Klebsiella pneumoniae = conditions: K. pneumoniae FADDI-KP032
In short: as §1

Pseudomonas aeruginosa = conditions: for MIC: P. aeruginosa ATCC 27853; for Minimum inhibitory concentration, Pa ATCC 27853: Pseudomonas aeruginosa ATCC 27853; for Minimum inhibitory concentration, Pa ATCC 27853 / Minimum inhibitory concentration, Pa FADDI-PA022 / Minimum inhibitory concentration, Pa FADDI-PA025: broth microdilution in CAMHB; for Minimum inhibitory concentration, Pa FADDI-PA022: Pseudomonas aeruginosa FADDI-PA022; for Minimum inhibitory concentration, Pa FADDI-PA025: Pseudomonas aeruginosa FADDI-PA025
In short: as §1

A. baumannii ATCC 19606 = assay: In vivo efficacy in mouse blood infection model (neutropenic Swiss mice); conditions: compound, free base 4 mg/kg intravenously 2 h after inoculation, blood at 4 h
In short: (§2)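 Activity expressed as Δlog10 CFU/mL blood, treated minus saline control, 4 h after a single 4 mg/kg (free base) i.v. dose given 2 h post-infection. Bloodstream infection from i.v. early log-phase inoculum in Swiss mice made neutropenic by i.p. cyclophosphamide on days −4 (150 mg/kg) and −1 (100 mg/kg).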

[1] = test system: K. pneumoniae FADDI-KP032; assay: as above; conditions: compound, free base 4 mg/kg intravenously 2 h after inoculation, blood at 4 h
In short: as §2

P. aeruginosa ATCC 27853 = assay: as above; conditions: compound, free base 4 mg/kg intravenously 2 h after inoculation, blood at 4 h
In short: as §2

[2] = Nephrotoxicity in a mouse model (kidney histology score); assay type: in vivo; conditions: mice, subcutaneous 12 mg base/kg, 6 doses in one day every 2 h; for Max Overall Kidney Histology Score: kidney ~20 h after last dose, product of percentage score and grade score; for Max Kidney Histology Score: semiquantitative score (SQS) 0 to +5
Description: PMB sulphate (Batch 20120204) and colistin sulphate (Batch 20120719) were supplied by Betapharma (Shanghai Co., Ltd, China). […] At ˜20 h after the last dose, mice were euthanised by inhalation of an overdose of isoflurane. […] The formalin-fixed kidneys were then sent to the Australian Phenomics Network-Histopathology and Organ Pathology (The University of Melbourne, Parkville, VIC, Australia) for histological examination. The samples were examined by a pathologist who was blind to the treatment groups. Lesions were rated as follows: mild acute tubular damage with tubular dilation, prominent nuclei and a few pale […] tubular casts (Grade 1); severe acute tubular damage with necrosis of tubular epithelial cells and numerous tubular casts (Grade 2); acute cortical necrosis/infarction of tubules and glomeruli with or without papillary necrosis (Grade 3). […] The overall kidney histology score was calculated as the product of percentage score and grade score. […] These scores were assigned as follows: […] SQS+3=moderate damage (overall score, 30 to <45); […]

| SMILES | MIC (Acinetobacter baumannii) [µg/mL] | Minimum inhibitory concentration, Ab A ATCC 17978 (Acinetobacter baumannii) [µg/mL] | Minimum inhibitory concentration, Ab ATCC 19606 (Acinetobacter baumannii) [µg/mL] | Minimum inhibitory concentration, Ab FADDI-AB034 (Acinetobacter baumannii) [µg/mL] | Minimum inhibitory concentration, Ec FADDI-EC001 (Enterobacter cloacae) [µg/mL] | Minimum inhibitory concentration, Ec FADDI-EC003 (Enterobacter cloacae) [µg/mL] | Minimum inhibitory concentration, Ec FADDI-EC006 (Enterobacter cloacae) [µg/mL] | MIC (Klebsiella pneumoniae) [µg/mL] | MIC (Pseudomonas aeruginosa) [µg/mL] | Minimum inhibitory concentration, Pa ATCC 27853 (Pseudomonas aeruginosa) [µg/mL] | Minimum inhibitory concentration, Pa FADDI-PA022 (Pseudomonas aeruginosa) [µg/mL] | Minimum inhibitory concentration, Pa FADDI-PA025 (Pseudomonas aeruginosa) [µg/mL] | Δ log (Treated-Control at 4 h) (A. baumannii ATCC 19606) [log10 CFU/mL] | Δ log (Treated-Control at 4 h) [1] [log10 CFU/mL] | Δ log (Treated-Control at 4 h) (P. aeruginosa ATCC 27853) [log10 CFU/mL] | Max Overall Kidney Histology Score [2] | Max Kidney Histology Score [2] |
| --- | --- | --- | --- | --- | --- | --- | --- | --- | --- | --- | --- | --- | --- | --- | --- | --- | --- |
| CC[C@@H]1NC(=O)[C@@H](CC(C)C)NC(=O)[C@H](CCN)NC(=O)[C@@H](NC(=O)[C@H](CN)NC(=O)[C@@H](NC(=O)[C@H](CCN)NC(=O)c2ccc(Cl)cc2Cl)[C@@H](C)O)CCNC(=O)[C@H]([C@@H](C)O)NC(=O)[C@H](CCN)NC(=O)[C@H](CCN)NC1=O [Compound 82] (X3-[Dab]T[Dap][Dab][Dab][dL][Abu][Dab][Dab]T; lactam 4-C) | 0.5 (≈ 0.431 µM) | 0.5 (≈ 0.431 µM) | 0.5 (≈ 0.431 µM) | 0.25 (≈ 0.215 µM) | <0.125 | <0.125 | <0.125 | <0.125 | 0.5 (≈ 0.431 µM) | 0.5 (≈ 0.431 µM) | 0.5 (≈ 0.431 µM) | 1 (≈ 0.862 µM) | −1.44 | −3.33 | −3.44 | 0.0 | 0 (SQS 0=no significant change (overall score, <1)) |
| CC[C@@H]1NC(=O)[C@@H](CC(C)C)NC(=O)[C@H](CCN)NC(=O)[C@@H](NC(=O)[C@H](CN)NC(=O)[C@@H](NC(=O)[C@H](CCN)NC(=O)c2ccc(Cl)c(Cl)c2)[C@@H](C)O)CCNC(=O)[C@H]([C@@H](C)O)NC(=O)[C@H](CCN)NC(=O)[C@H](CCN)NC1=O [Compound 71] (X4-[Dab]T[Dap][Dab][Dab][dL][Abu][Dab][Dab]T; lactam 4-C) | 0.5 (≈ 0.431 µM) | 0.25 (≈ 0.215 µM) | 0.5 (≈ 0.431 µM) | 0.25 (≈ 0.215 µM) | 1 (≈ 0.862 µM) | 0.25 (≈ 0.215 µM) | 1 (≈ 0.862 µM) | 0.5 (≈ 0.431 µM) | 0.5 (≈ 0.431 µM) | 0.5 (≈ 0.431 µM) | 4 (≈ 3.45 µM) | 1 (≈ 0.862 µM) | −1.82 | −2.98 | −4.04 | 0.0 | 0 (SQS 0=no significant change (overall score, <1)) |
| CC[C@@H]1NC(=O)[C@@H](CC(C)C)NC(=O)[C@H](CCN)NC(=O)[C@@H](NC(=O)[C@H](CN)NC(=O)[C@@H](NC(=O)[C@H](CCN)NC(=O)c2cc(Cl)cc(Cl)c2)[C@@H](C)O)CCNC(=O)[C@H]([C@@H](C)O)NC(=O)[C@H](CCN)NC(=O)[C@H](CCN)NC1=O [Compound 96] ({Benzoyl(3,5-Cl2)}-[Dab]T[Dap][Dab][Dab][dL][Abu][Dab][Dab]T; lactam 4-C) | 0.5 (≈ 0.431 µM) | 0.25 (≈ 0.215 µM) | 0.5 (≈ 0.431 µM) | 0.25 (≈ 0.215 µM) | 1 (≈ 0.862 µM) | 1 (≈ 0.862 µM) | 0.5 (≈ 0.431 µM) | <0.125 | 0.25 (≈ 0.215 µM) | 0.25 (≈ 0.215 µM) | 0.25 (≈ 0.215 µM) | 0.5 (≈ 0.431 µM) | −2.42 | −2.75 | −3.45 | 2.0 | +1 (SQS+1=mild damage (overall score, 1 to <15)) |
| CC[C@@H]1NC(=O)[C@@H](CC(C)C)NC(=O)[C@H](CCN)NC(=O)[C@@H](NC(=O)[C@H](CN)NC(=O)[C@@H](NC(=O)[C@H](CCN)NC(=O)Cc2cccc(Cl)c2)[C@@H](C)O)CCNC(=O)[C@H]([C@@H](C)O)NC(=O)[C@H](CCN)NC(=O)[C@H](CCN)NC1=O [Compound 79] ({Phenylacetyl(3-Cl)}-[Dab]T[Dap][Dab][Dab][dL][Abu][Dab][Dab]T; lactam 4-C) | 1 (≈ 0.877 µM) | 0.5 (≈ 0.439 µM) | 1 (≈ 0.877 µM) | 1 (≈ 0.877 µM) | 0.25 (≈ 0.219 µM) | <0.125 | 2 (≈ 1.75 µM) | <0.125 | 0.5 (≈ 0.439 µM) | 0.5 (≈ 0.439 µM) | 1 (≈ 0.877 µM) | 1 (≈ 0.877 µM) | – | – | −2.28 | 5.0 | +1 (SQS+1=mild damage (overall score, 1 to <15)) |
| CC[C@@H]1NC(=O)[C@@H](CC(C)C)NC(=O)[C@H](CCN)NC(=O)[C@@H](NC(=O)[C@H](CN)NC(=O)[C@@H](NC(=O)[C@H](CCN)NC(=O)c2cccc(Cl)c2)[C@@H](C)O)CCNC(=O)[C@H]([C@@H](C)O)NC(=O)[C@H](CCN)NC(=O)[C@H](CCN)NC1=O [Compound 88] ({Benzoyl(3-Cl)}-[Dab]T[Dap][Dab][Dab][dL][Abu][Dab][Dab]T; lactam 4-C) | 2 (≈ 1.78 µM) | 0.5 (≈ 0.444 µM) | 2 (≈ 1.78 µM) | 0.5 (≈ 0.444 µM) | 1 (≈ 0.888 µM) | 0.25 (≈ 0.222 µM) | 0.5 (≈ 0.444 µM) | 0.5 (≈ 0.444 µM) | 0.5 (≈ 0.444 µM) | 0.5 (≈ 0.444 µM) | 1 (≈ 0.888 µM) | 2 (≈ 1.78 µM) | −2.46 | – | −3.33 | 0.0 | 0 (SQS 0=no significant change (overall score, <1)) |
| CC[C@@H]1NC(=O)[C@@H](CC(C)C)NC(=O)[C@H](CCN)NC(=O)[C@@H](NC(=O)[C@H](CN)NC(=O)[C@@H](NC(=O)[C@H](CCN)NC(=O)Cc2ccccc2)[C@@H](C)O)CCNC(=O)[C@H]([C@@H](C)O)NC(=O)[C@H](CCN)NC(=O)[C@H](CCN)NC1=O [Compound 78] (PhAc-[Dab]T[Dap][Dab][Dab][dL][Abu][Dab][Dab]T; lactam 4-C) | – | 2 (≈ 1.81 µM) | 4 (≈ 3.62 µM) | 2 (≈ 1.81 µM) | 0.25 (≈ 0.226 µM) | 0.25 (≈ 0.226 µM) | 0.5 (≈ 0.452 µM) | – | – | 1 (≈ 0.905 µM) | 0.5 (≈ 0.452 µM) | 4 (≈ 3.62 µM) | – | – | – | 0.0 | 0 (SQS 0=no significant change (overall score, <1)) |
